Assay: Saturation concentration of chlorhexidine base in water
Type: physicochemical
Description: The size and the zeta potential of the nanocapsules, determined using a Zetamaster® S, are 450 nm and −40 mV, respectively. The concentration of free (i.e. nonencapsulated) chiorhexidine in the nanocapsule suspension was determined after filtration of the colloidal suspension through a 0.22 μm filter. After dilution in distilled water, the concentration of chiorhexidine base free in the filtrate, determined by high performance liquid chromatography (HPLC) (H. Lboutounne, V. Faivre, F. Faison, and F. Pirot, Skin Pharmacology and Applied Skin Physiology 17: 176-182 (2004); H. Lboutounne, J.-F. Chaulet, C. Ploton, F. Faison, and F. Pirot Journal of Controlled Release 82: 319-334 (2002); D. T. T. Nhung, A.-M. Freydiere, H. Constant, F. Faison, and F. Pirot International Journal of Pharmaceutics 334:166-172 (2007)), was in the region of 0.008%, i.e. the saturation concentration of chiorhexidine base in water. The concentration of encapsulated chlorhexidine base was determined by virtue of the difference between the total concentration of chlorhexidine base in the suspension and the concentration of free chlorhexidine. The total concentration of encapsulated chiorhexidine base was determined after dilution of an aliquot of colloidal suspension in a mixture of acetonitrile/sodium acetate (30 mM) (50/50, v/v). […]

N=C(NCCCCCCNC(=N)NC(=N)Nc1ccc(Cl)cc1)NC(=N)Nc1ccc(Cl)cc1 [chlorhexidine base, Chlorhexidine base]
saturation concentration of chlorhexidine base in water: ~0.008%

From US9233079B2, “Method for producing nanocapsules in the absence of an organic solvent, and nanocapsules produced thereby” (UNIVERSITE CLAUDE BERNARD LYON I, priority 2008, dated 2016)
